For one series, the system named is B16 melanoma. Nature of the series: B16 melanoma model: tumour growth and survival time. In kind it is in vivo, C57BL/6 mice. To be noted: CY 200 mg/Kg i.p. day 7; OM-174 1 mg/kg i.p. days 8, 13, 18, 23, 28; vs untreated controls. As for the experimental part:
Four to six weeks-old male C57BL/6 mice were purchased from Charles River (Calco, Corno, Italy). B 16 melanoma tumour cells were serially passaged subcutaneously (s.c.) in syngenic mice. On day 0, mice were injected s.c. in the right flank with 2×10^5 B16 melanoma cells. Tumour growth was measured daily in each mouse, using calipers, and mean tumour diameter per day was calculated. At day 7 after tumour injection, all mice with s.c. tumours of about 2-3 mm diameter were divided into different experimental groups, i.e. phosphate buffered saline (PBS)-injected control 3, CY, OM-174 or CY with OM-174.
Cyclophosphamide (Sigma, St. Louis, Mo.) was dissolved at 20 mg/ml in PBS immediately before use, and 0.2 ml per mouse were injected intraperitoneally. Each treated animal received a single dose of 200 mg/Kg CY on day 7.
Kaplan-Meier method was used to estimate the survivor functions and Log-rank test was performed for testing the homogeneity of survival functions across the four groups (control, CY, OM-174, CY+OM-174).
Tumor growth was analyzed by T-test for unpaired data.

For series [1], the system named is spleen cells expressing CD4, CD8, and NK1.1. The series can be described thus: Flow cytometric analysis of spleen cell subsets. It counts as in vivo, C57BL/6 mice. To be noted: B16 tumour-bearing mice, day 14, mean ± S.E.M. As for the experimental part:
Splenocytes from individual mice were analysed by flow cytometry. The following monoclonal antibodies were used for double fluorescence analysis of spleen cell subsets: fluorescein (FITC)-conjugated anti-mouse NK1.1 PE (PharMingen, San Diego, Calif.), PE-conjugated anti-mouse CD4 (PharMingen), FITC-conjugated anti-mouse CD8 (PharMingen). Approximately 1×10^6 spleen cells were resuspended in […] of CM and staining was performed at 4° C. for 30 minutes. Cells were then washed twice in PBS containing 0.02% sodium azide and flow cytometric analysis was performed using a FACscan flow cytometer (Becton Dickinson).
Fluorescence data were collected using a 488 nm excitation wavelength from a 15 mW air-cooled argon-ion laser. […] A minimum of 5,000 events were collected on each sample and acquired in list mode by a Hewlett Packard 9000 computer. To exclude dead cells, debris, non lymphoid cells, and cell aggregates, data collection was gated on live spleen lymphocytes by forward and side angle scatter. Data are represented as the percentage of positive cells over the total number of cells counted.
For orientation: Flow cytometry measures light scatter and fluorescence of single cells or particles in a stream.

Series [2] concerns PROb subcutaneous colon tumors. In kind it is in vivo, BDIX rats. Conditions: rat, in vivo.
A further series concerns YAC-1 cells. The series can be described thus: NK activity of spleen cells, 4-hour 51Cr-release assay. To be noted: day 14.
In the next series the test system is B16 melanoma cells. The series can be described thus: Cytotoxic (CTL) activity of spleen cells against autologous tumour cells, 51Cr-release assay.
Series [3] deals with PROb cells. The series can be described thus: BDIX/PROb peritoneal carcinomatosis, cisplatin combined with OM-174, survival. In kind it is in vivo, BDIX rats. Conditions: cisplatin 3 mg/kg i.v. day 21; OM-174 1 mg/kg i.v., 5 injections every 5th day from day 28 or 35. As for the experimental part:
Colon cancer PROb cells were originally obtained from a tumor of a BDIX rat induced by 1,2-dimethylhydrazine.
The BDIX strain of rats was established in 1937 by H. Druckrey. Nowadays these rats come from Iffa-Credo (L'Asbresle, France).
BDIX rats, 4 months±1 month at the beginning of the experiment, 7 animals/group, received i.p. cultured syngenic PROb cells (i.p) on day 0. Cisplatin (3 mg/kg) was injected i.v. on day 21, and OM-174 treatment (1 mg/kg, 5 injections i.v. in the penile vein every 5th day) started either on days 28 or 35. Survival was followed until day 72 in the example presented here.
In this example, cisplatin (3 mg/kg i.v) is given on day 21. A further immunostimulating treatment with OM-174 is started only on day 28 or 35 (1 mg/kg, 5 injections i.v. every 5th day).

Series [4] relates to PROb cells. Nature of the series: PROb i.p. rat colon cancer model, 5-FU combined with OM-174: carcinomatosis classes, ascites, survival. It counts as in vivo. Conditions: day 61. As for the experimental part:
On day 0 (D0), 106 PROb cells were injected i.p. to each rat. 5-FU was administered i.p. at the dose of 30 mg/kg on days 7 and 14. OM-174 was injected at the dose of 1 mg/kg i.v. from day 21 three times a week for a total of 10 injections.
All rats (controls and treated) were sacrificed by CO2 on day 61. The efficacy of the treatment was determined by read-outs such as survival (FIG. 5) and measure of the classes of cancer given depending on the number and the size of the nodules, and also by ascites measurements. Carcinomatoses were evaluated blindly. As it is impossible to measure the volume of a carcinomatosis, they were classified according to the number and diameter of the nodules: • Class 0: no visible nodule • Class 1: some countable nodules with a diameter from 0.1 to 0.3 cm • Class 2: many uncountable nodules with a diameter from 0.1 to 0.3 cm • Class 3: some nodules with a diameter of 1 cm invade the peritoneal cavity • Class 4: the cavity is completely invaded by tumor masses of several cm.
The ascite volume was measured by double weights of the rats.

Setting [5] is: positive cells vs total spleen cells.

The structures appear in SMILES notation. “Also recorded” adds a separate entry of the source.

Description for B16 melanoma cells: (§1) Mice were sacrificed by cervical dislocation on day 14 after tumour inoculation.
(§2) In vitro-passaged YAC-1 cells (a Moloney-virus induced mouse T cells lymphoma of A/SN origin), and in vivo-passaged B16 melanoma cells, were used as target cells in a chromium-release assay. B16 melanoma cells were obtained from tumour-bearing mice, seeded in cell-culture flasks (Falcon, Becton Dickinson and Co., Plymouth, England) and used within the first week of culture in CM. B16 and YAC-1 cell lines were obtained from the laboratory collection, and were originally obtained from the American Tissue Culture Collection (ATCC).
(§3) The cytotoxic activity of the effector cells collected from individual mice was measured by a standard 4-hour ^51Cr-release assay. Briefly, target cells were harvested from the cultures, washed twice, resuspended at 5×10^6 cells in 0.9 ml of CM and labelled with 100 μCi (^51Cr) sodium chromate (New England Nuclear, Boston, Mass.) for 1 hour at 37° C. in a 5% CO2 incubator. […] The effector cells suspension was added to quadruplicate wells to give three E/T ratios (i.e. 100:1, 50:1, 25:1) in a final volume of 200 μl per well. The plates were then incubated for 4 hours at 37° C. in a 5% CO2 incubator, 100 μl of supernatants were collected from each well, and the radioactivity was measured using a gamma counter. Total mean cytotoxicity±S.E.M. were calculated from quadruplicate cpm values from individual spleens.
It has been tested from spleen cells from normal and tumour-bearing mice for specific cytotoxic activity against autologous tumour cells using in-vivo passaged B16 melanoma cells as target.
Description for YAC-1 cells: as §1, §2, §3
It has been therefore measured the cytotoxic activity of splenocytes against NK-sensitive (YAC-1) tumour cells.

As to `O=P1(N(CCCl)CCCl)NCCCO1` (stereo not shown) [CY, cyclophosphamide, reference compound], in the series with B16 melanoma, the “B16 tumour growth (in words, FIG. 1)” value is recorded as “inhibited slightly but significantly” and the “Survival time (MST) of mice (in words, FIG. 2)” value was “increased slightly but significantly”. Further, in series [1] (NK1.1 positive cells vs total spleen cells), the “NK (%)” value came out at 4 ± 0.5%. In series [1] (setting [5]), the “CD4^+ (%)” value is 21.7 ± 1.8% and the “CD8^+ (%)” value is 6.4 ± 1.4%. Moreover, in series [2], the “Antitumoral effect of single treatment on large, established PROb tumors (in words, FIG. 3)” value is “transient regression; also recorded: unable to cure animals” and the “Number of cured animals/total number of animals” value is 0/6. Further, the “NK activity (in words)” value with YAC-1 cells (B16 melanoma-injected mice) is “decreased NK activity”. For the same compound, the NK % cytotoxicity with YAC-1 cells (B16 tumour-bearing mice, E/T ratio 25:1, CY 200 mg/Kg i.p. day 7, OM-174 1 mg/kg i.p. days 8 and 13, mean ± S.E.) was 2.3 ± 0.4%. Also, the CTL % cytotoxicity in the series on B16 melanoma cells (B16 tumour-bearing mice, day 14, E/T ratio 25:1, CY 200 mg/Kg i.p. day 7, OM-174 1 mg/kg i.p. days 8 and 13, mean ± S.E.) turned out to be 2.63 ± 0.2%. Also, in the series on B16 melanoma cells (tumour-bearing mice), the “Cytotoxic activity against autologous tumour cells (in words)” value was “not to be increased”.

Consider `N.N.[Cl][Pt][Cl]` [Cisplatin, cisplatin, reference compound], for which the “Antitumour activity / survival (in words, FIG. 4)” value in the series with PROb cells [3] was “only partial efficacy”.

With `O=c1[nH]cc(F)c(=O)[nH]1` [5-FU, 5-Fluorouracil, reference compound], the “Number of rats in carcinomatosis class 0” value with PROb cells [4] (Class 0: no visible nodule, 5-FU 30 mg/kg i.p. days 7 and 14, OM-174 1 mg/kg i.v. from day 21, 10 injections) is 2. Also, in the series on PROb cells [4] (Class 1: some countable nodules with a diameter from 0.1 to 0.3 cm), the “Number of rats in carcinomatosis class 1” value came out at 0. Moreover, the “Number of rats in carcinomatosis class 2” value with PROb cells [4] (Class 2: many uncountable nodules with a diameter from 0.1 to 0.3 cm) came out at 0. The “Number of rats in carcinomatosis class 3” value in the series on PROb cells [4] (Class 3: some nodules with a diameter of 1 cm invade the peritoneal cavity) is listed as 0. Moreover, the “Number of rats in carcinomatosis class 4” value with PROb cells [4] (Class 4: the cavity is completely invaded by tumor masses of several cm) came to 8. Also, the “Carcinomatosis classes versus Control group (Mann-Whitney test)” value in the series on PROb cells [4] was “No significant difference”. The Ascites in the series with PROb cells [4] (measured by double weights of the rats) was determined as 44 mL.
